Test results from the CheMixHub viscosity set.

Assay: xn = mol fraction of the nth substance listed

CCCCN(CCCC)CCCC + CCCCCCCCO
viscosity [mPa·s], 101.3 kPa
Settings | x1 = 0.0904 | x1 = 0.1906 | x1 = 0.2864 | x1 = 0.4192 | x1 = 0.5184 | x1 = 0.6196 | x1 = 0.7144 | x1 = 0.8124 | x1 = 0.8987
303.15 K | 5.287 | 4.464 | 3.765 | 2.935 | 2.43 | 2.025 | 1.723 | 1.487 | 1.33
313.15 K | 3.767 | 3.171 | 2.698 | 2.185 | 1.872 | 1.619 | 1.424 | 1.25 | 1.128

CCCCOC(=O)c1ccccc1C(=O)OCCCC + CCCCCCCCO
303.15 K, 101.33 kPa
Settings | viscosity [mPa·s]
x1 = 0.1003 | 5.9
x1 = 0.2011 | 5.876
x1 = 0.3001 | 6.078
x1 = 0.3996 | 6.444
x1 = 0.5 | 6.901
x1 = 0.5999 | 7.6
x1 = 0.6958 | 8.396
x1 = 0.7975 | 9.53
x1 = 0.898 | 11.05

C=CC#N + CCCCCCCO
viscosity [mPa·s], 101.33 kPa
Settings | x1 = 0.1047 | x1 = 0.206 | x1 = 0.3057 | x1 = 0.4142 | x1 = 0.5106 | x1 = 0.6206 | x1 = 0.7044 | x1 = 0.8027 | x1 = 0.9033
298.15 K | 4.015 | 2.967 | 2.212 | 1.627 | 1.238 | 0.891 | 0.705 | 0.54 | 0.425
303.15 K | 3.469 | 2.587 | 1.958 | 1.441 | – | 0.815 | 0.652 | 0.508 | 0.403
308.15 K | 3 | 2.273 | 1.73 | 1.296 | 1.013 | 0.75 | 0.605 | 0.478 | 0.383

CCCCN(CCCC)CCCC + CCCCCCCO
viscosity [mPa·s], 101.3 kPa
Settings | x1 = 0.1067 | x1 = 0.1877 | x1 = 0.2841 | x1 = 0.4197 | x1 = 0.5183 | x1 = 0.619 | x1 = 0.7191 | x1 = 0.8008 | x1 = 0.89
303.15 K | 4.133 | 3.677 | 3.178 | 2.558 | 2.191 | 1.881 | 1.644 | 1.482 | 1.328
313.15 K | 3.033 | 2.69 | 2.355 | 1.956 | 1.709 | 1.497 | 1.33 | 1.217 | 1.1

C=CC#N + CCCCCCO
viscosity [mPa·s], 101.33 kPa
Settings | x1 = 0.1023 | x1 = 0.2036 | x1 = 0.3089 | x1 = 0.4105 | x1 = 0.5081 | x1 = 0.6117 | x1 = 0.7084 | x1 = 0.8056 | x1 = 0.9019
298.15 K | 3.139 | 2.308 | 1.705 | 1.3 | 1.006 | 0.774 | 0.617 | 0.495 | 0.41
303.15 K | 2.727 | 2.03 | 1.522 | 1.175 | 0.916 | 0.712 | 0.571 | 0.466 | 0.388
308.15 K | 2.38 | 1.799 | 1.365 | 1.063 | 0.84 | 0.661 | 0.533 | 0.439 | 0.37

C=CC#N + CCCCCO
viscosity [mPa·s], 101.33 kPa
Settings | x1 = 0.1032 | x1 = 0.2077 | x1 = 0.3006 | x1 = 0.4053 | x1 = 0.5035 | x1 = 0.6091 | x1 = 0.7025 | x1 = 0.8042 | x1 = 0.9004
298.15 K | 2.405 | 1.777 | 1.384 | 1.064 | 0.847 | 0.668 | 0.558 | 0.464 | 0.401
303.15 K | 2.107 | 1.58 | 1.24 | 0.965 | 0.774 | 0.619 | 0.52 | 0.436 | 0.382
308.15 K | 1.86 | 1.413 | 1.122 | 0.879 | 0.715 | 0.577 | 0.488 | 0.416 | 0.364

CC(=O)CC(C)=O + CCCCCO
298.15 K, 101 kPa
Settings | viscosity [mPa·s]
x1 = 0.1 | 2.509
x1 = 0.2 | 1.944
x1 = 0.3 | 1.55
x1 = 0.4 | 1.263
x1 = 0.5 | 1.05
x1 = 0.6 | 0.897
x1 = 0.7 | 0.796
x1 = 0.8 | 0.743
x1 = 0.9 | 0.722

CCC(C)(C)O + CCCCCO
viscosity [mPa·s], 101 kPa
Settings | 298.15 K | 318.15 K
x2 = 0.051 | 3.666 | 1.715
x2 = 0.1017 | 3.812 | 1.782
x2 = 0.2023 | 4.096 | 1.867
x2 = 0.3041 | 4.309 | 1.974
x2 = 0.4034 | 4.432 | 2.058
x2 = 0.4972 | 4.456 | 2.122
x2 = 0.5939 | 4.415 | 2.167
x2 = 0.6991 | 4.251 | 2.195
x2 = 0.8003 | 4.112 | 2.187
x2 = 0.9012 | 3.939 | 2.174
x2 = 0.9496 | 3.831 | 2.161

CCCCN(CCCC)CCCC + CCCCCO
viscosity [mPa·s], 101.3 kPa
Settings | x1 = 0.0945 | x1 = 0.1881 | x1 = 0.2845 | x1 = 0.3843 | x1 = 0.4829 | x1 = 0.6148 | x1 = 0.7041 | x1 = 0.798 | x1 = 0.8912
303.15 K | 2.622 | 2.405 | 2.18 | 1.961 | 1.786 | 1.581 | 1.458 | 1.365 | 1.262
313.15 K | 2.122 | 1.91 | 1.714 | 1.551 | 1.415 | 1.266 | 1.188 | 1.118 | 1.054

CN(C)c1ccccc1 + CCCCCO
303.15 K, 101 kPa
Settings | viscosity [mPa·s]
x1 = 0.0799 | 2.75
x1 = 0.121 | 2.704
x1 = 0.2034 | 2.605
x1 = 0.2784 | 2.506
x1 = 0.3584 | 2.392
x1 = 0.4284 | 2.284
x1 = 0.5047 | 2.158
x1 = 0.5722 | 2.039
x1 = 0.6406 | 1.913
x1 = 0.7103 | 1.777
x1 = 0.781 | 1.635
x1 = 0.8168 | 1.562
x1 = 0.9058 | 1.374

C=CC#N + CCCCO
viscosity [mPa·s], 101.33 kPa
Settings | x1 = 0.1054 | x1 = 0.2059 | x1 = 0.305 | x1 = 0.4063 | x1 = 0.5073 | x1 = 0.6039 | x1 = 0.6962 | x1 = 0.8074 | x1 = 0.9006
298.15 K | 1.797 | 1.363 | 1.065 | 0.849 | 0.69 | 0.581 | 0.499 | 0.429 | 0.386
303.15 K | 1.596 | 1.221 | 0.965 | 0.776 | 0.637 | 0.539 | 0.468 | 0.407 | 0.369
308.15 K | 1.424 | 1.102 | 0.881 | 0.714 | 0.594 | 0.505 | 0.442 | 0.385 | 0.352

CC(C)(C)Br + CCCCO
viscosity [mPa·s], 101.3 kPa
Settings | x1 = 0.0518 | x1 = 0.106 | x1 = 0.2079 | x1 = 0.3109 | x1 = 0.4067 | x1 = 0.5054 | x1 = 0.6023 | x1 = 0.7004 | x1 = 0.7993 | x1 = 0.901
298.15 K | 2.264 | 2.002 | 1.638 | 1.377 | 1.203 | 1.055 | 0.9468 | 0.8591 | 0.7905 | 0.7428
313.15 K | 1.575 | 1.41 | 1.19 | 1.02 | 0.9075 | 0.8127 | 0.7355 | 0.6723 | 0.6264 | 0.5951
